Laboratory results as given in US20150160193A1, “TUMOR CELL ISOLATION/PURIFICATION PROCESS AND METHODS FOR USE THEREOF” (DIATECH ONCOLOGY, priority 2012, published 2015).
Like-named read-outs stand apart in the source and are kept apart here. *1 amine or outer side, *2 acyl side, *3 side chain or, on linkers, in order; H or OH if unused. Where a SMILES comes first, the peptide text is derived from it. Bridges are numbered along the chain shown (N, C = ends). Roman numbers before positions name the chains, in order. [ ]: non-standard residue; d: D form. Actinocin(9to1) = Cc1c2oc3c(C)ccc(C(=O)[*:1])c3nc-2c(C(=O)[*:2])c(N)c1=O; NMeV = CN[C@H](C(=O)O)C(C)C; Sar = CNCC(=O)O

Key:
[1] = system: Purified breast cancer cells from 67 patient (Pt) biopsies; assay: MiCK assay of drug-induced apoptosis, breast cancer specimens; assay type: cell-based, human; conditions: for Mean Difference (95% CI) of KU vs Mitox: drug minus Mitox; for Mean Difference (95% CI) of KU vs Doxo: paired t-test, drug minus Doxo
Method: Apoptosis(KU)=(VmaxDrug Candidate Treated−VmaxControl)×60×X/(ODcontrol−ODblank)
Within 24 to 48 hours of collection, the specimen was minced, digested with 0.25% trypsin and 0.08% DNase for 1-2 hours at 37 C.°, and then filtered through a 100 micrometer cell strainer. When necessary, non-viable cells were removed by density gradient centrifugation. The cell suspension was then incubated for 30 min at 37° C. in a tissue culture flask to remove macrophages by adherence. For epithelial tumors lymphocytes were removed by 30 minute incubation with CD2 antibody conjugated magnetic beads for T lymphocytes and CD19 antibody conjugated magnetic beads for B lymphocytes. Remaining macrophages were removed, if necessary, using CD14 antibody conjugated magnetic beads. The final cell suspension was plated into a 96-well half-area plate, 120 microliter aliquot per well. The plate was incubated overnight at 37° C. with 5% carbon dioxide humidified atmosphere. 5×10^4 to 1.5×10^5 cells were seeded per well depending on the cell volume to give adequate well-bottom coverage.
Within 24 to 48 hours of collection, the specimen was treated as follows in order to purify and isolate cells from solid tumors: • Take the specimen out of the transport tube. • Put in a petri dish in 13 ml of PBS+high concentration of antibiotics (200 units/ml Penicillin+200 μg/ml streptomycin) and take measurements and picture of the specimen. […] In that case, one may make the determination to do a “pre-filtration” using sterile gauze over a 50 ml tube. Then proceed with the cell strainer filtration process referenced above. • Centrifuge the filtered cell suspension 1500 RPM 5 min • Discard the supernatant. To the pellet, add 5 ml of red blood cell lysis solution (standard NH4Cl containing lysis solution: Nh4Cl0.15M+KHCO3 10 mM+EDTA-4Na 0.1 mM, pH 7.2), incubate 2-3 min and add 5 ml of RPMI 10% FBS. • Centrifuge 5 min 1500 RPM. Resuspend the pellet in RPMI 10% FBS (1-10 ml depending on the pellet size). • Collect the second fraction in the enzyme and repeat the steps above. • Check the viability of all fractions and pool. Do a cytospin stain with Wright Giemsa to verify the cell content of the population. NOTE: this is done numerous times during the process of purification. • 3) When necessary, non-viable cells were removed by density gradient centrifugation. • Density gradient centrifugation (optiprep): first layer=2 ml cells+4.45 ml optiprep 40% in RPMI, second layer=optiprep 22.5% in RPMI, 3rd layer=0.5 ml of RPMI. Centrifuge at 2000 RPM for 20 min • Collect the viable cell layer, add 10 ml of RPMI 10% FBS, centrifuge at 1500 RPM for 5 min • Resuspend the pellet in RPMI 10% FBS (volume depends on the pellet size and on the next step required). • If mucin is present in the specimen: resuspend the pellet in 10 ml of PBS+20 mM DTT and incubate at 4° C. for 30 min to disintegrate the mucin. Wash with RPMI 1500 rpm for 5 min Resuspend the pellet in RPMI 10% FBS. • If the specimen is highly necrotic with presence of debris: Percoll 20% in HBSS, centrifuge at 800×g for 10 min • 4) The cell suspension was then incubated for 20 min at 37° C. in a tissue culture flask to remove macrophages by adherence. • The size and quantity of the flask and the volume used depends on the amount of cells.

[2] = system: neoplastic cells collected from spleen and abdominal tumor biopsy specimens; assay: MiCK assay, patient specific cancer cell testing (Example 10); assay type: cell-based, human
Method: The experiments were conducted on neoplastic cells collected from spleen and abdominal tumor biopsy specimens from a person. The tumor specimens were of an unknown primary. The experiment consisted of using a MiCK assay, according to the present disclosure, to test the effectiveness of 37 potential anti-cancer drugs, combinations of these drugs, and various concentrations of these drugs.
Apoptotic readings greater than 5.0KU in the MiCK assay are considered to be highly sensitive and are associated with a good clinical response. […] It should be noted that the alkylating agents cyclophosphamide and ifosfamide require hepatic metabolic transformation to their active metabolite, 4HC and 4HI respectively, and therefore cannot be tested directly in vitro. For the MiCK assay their active metabolites, 4HC and 4HI respectively were used.

[3] = kinetic units of apoptosis, mean over N patient samples (at least 9 per drug)
[4] = kinetic units of apoptosis, median over N patient samples
[5] = person, tumor of unknown primary, maximum apoptotic response over the concentrations tested
[6] = KU compared per patient, % of 13 patients
[7] = KU compared per patient, % of 34 patients
[8] = KU compared per patient, % of 24 patients

Molecule	KU Mean [1, 3] [KU]	KU Median [1, 4] [KU]	Max Resp. (KU) [2, 5] [KU]	also measured
CC(=O)O[C@H]1C(=O)[C@@]2(C)[C@H]([C@H](OC(=O)c3ccccc3)[C@]3(O)C[C@H](OC(=O)[C@H](O)[C@@H](NC(=O)c4ccccc4)c4ccccc4)C(C)=C1C3(C)C)[C@]1(OC(C)=O)CO[C@@H]1C[C@@H]2O [Taxol, paclitaxel]	2.1	1.9	1.6	Mean Difference (95% CI) of KU vs Abraxane ([1]; patient pairwise comparison, drug minus Abraxane): 1.20 KU
COc1cccc2c1C(=O)c1c(O)c3c(c(O)c1C2=O)C[C@@](O)(C(C)=O)C[C@@H]3O[C@H]1C[C@H](N)[C@H](O)[C@H](C)O1 [Danorubicin, Daunorubicin]			3.1	
CNC(=O)c1cc(Oc2ccc(NC(=O)Nc3ccc(Cl)c(C(F)(F)F)c3)cc2)ccn1 [Sorafenib]			3.8	
Cc1ccc(NC(=O)c2ccc(CN3CCN(C)CC3)cc2)cc1Nc1nccc(-c2cccnc2)n1 [Gleevec (imatinib), imatinib]			1.5	
CC(C)C[C@H](NC(=O)[C@H](Cc1ccccc1)NC(=O)c1cnccn1)B(O)O [Velcade]			3.8	
Nc1nc2[nH]cc(CCc3ccc(C(=O)N[C@@H](CCC(=O)O)C(=O)O)cc3)c2c(=O)[nH]1 [Alimta, pemetrexed]			0.6	
CCCCCOC(=O)Nc1nc(=O)n([C@@H]2O[C@H](C)[C@@H](O)[C@H]2O)cc1F [Xeloda, capcitabine]	0.7	0.7		5fu and Xeloda < 1 [1, 6]: 8/13 (62%); Xeloda = 5fu +/− 0.57 and both > 1 [1, 6]: 0/13 (0%); Xeloda > 5fu by more than 0.57 and Xeloda > 1 [1, 6]: 2/13 (15%); Mean Difference (95% CI) of KU vs 5FU ([1]; patient pairwise comparison, drug minus 5FU): 0.26 (−0.26 to 0.77) KU
O=C1c2c(O)ccc(O)c2C(=O)c2c(NCCNCCO)ccc(NCCNCCO)c21 [Mitox, mitoxantrone]	1.2	1.2		
COc1cc([C@@H]2c3cc4c(cc3[C@@H](O[C@@H]3O[C@@H]5CO[C@@H](C)O[C@H]5[C@H](O)[C@H]3O)[C@H]3COC(=O)[C@H]23)OCO4)cc(OC)c1O [Etoposide, etoposide]	1.3	1.3	0.8	
COc1cccc2c1C(=O)c1c(O)c3c(c(O)c1C2=O)C[C@@](O)(C(=O)CO)C[C@@H]3O[C@H]1C[C@H](N)[C@@H](O)[C@H](C)O1 [Epi, Epirubicin]	2.5	2.1	3.8	Doxo and Epi < 1 [1, 7]: 1/34 (3%); Epi = Doxo +/− 0.57 and both > 1 [1, 7]: 22/34 (65%); Epi > Doxo by more than 0.57 and Epi > 1 [1, 7]: 6/34 (18%); Mean Difference (95% CI) of KU vs Mitox ([1]; patient pairwise comparison): 0.83 KU; Mean Difference (95% CI) of KU vs Doxo ([1]; patient pairwise comparison): 0.37 KU; Mean Difference (95% CI) of KU vs Doxo ([1]; patient pairwise comparison, listed as epirubicin): APOP>doxorubicin
N.N.O=C([O-])C1(C(=O)[O-])CCC1.[Pt+2] [Carbo, Carboplatin]	1.6	1.6	6.0	Carbo = Cisplatin +/− 0.57 and both > 1 [1, 8]: (17%); Carbo > Cisplatin by more than 0.57 and Carbo > 1 [1, 8]: (8%); Cisplatin and Carbo both < 1 [1, 8]: (17%); % >1 ([1]; share of samples with KU >1): 67%; % >3 ([1]; share of samples with KU >3): 13%
C/C(=C\c1csc(C)n1)[C@@H]1C[C@@H]2O[C@]2(C)CCC[C@H](C)[C@H](O)[C@@H](C)C(=O)C(C)(C)[C@@H](O)CC(=O)N1 [Ixabepilone, ixabepilone]	1.3	1.2		
Nc1ccn([C@@H]2O[C@H](CO)[C@@H](O)C2(F)F)c(=O)n1 [Gemzar, gemcitabine]	1.0	0.8	0.8	
COc1cccc2c1C(=O)c1c(O)c3c(c(O)c1C2=O)C[C@@](O)(C(=O)CO)C[C@@H]3O[C@H]1C[C@H](N)[C@H](O)[C@H](C)O1 [Doxo, doxorubicin]	1.9	1.6	3.5	Doxo > Doxil + 0.57 ([1]; KU compared per patient, % of 9 patients): 4/9 (44%); Doxo > Epi + 0.57 [1, 7]: 3/34 (9%); Mean Difference (95% CI) of KU vs Doxil ([1]; patient pairwise comparison, drug minus Doxil): 0.56 (−0.07 to 1.18) KU; Mean Difference (95% CI) of KU vs Mitox ([1]; patient pairwise comparison): 0.63 KU
CCN(CC)CCNC(=O)c1c(C)[nH]c(/C=C2\C(=O)Nc3ccc(F)cc32)c1C [Sunifinib, Sunitinib]			7.9	
O=P1(N(CCCl)CCCl)NCCCO1 (centres unmarked) [Cytoxan, cyclophosphamide]			8.4	Cytox = Ifosf +/− 0.57 and both > 1 [1]: (55%); Cytox > Ifosf by more than 0.57 and Cytox > 1 [1]: (18%); Cytox and Ifosf both < 1 [1]: (27%); KU Mean [1]: 2.8 KU; KU Median [1]: 2.6 KU; Mean Difference (95% CI) of KU vs Ifosphamide [1]: 0.34 (−0.07 to 0.76) KU; efficacy for this patient, in words ([2]; person, tumor of unknown primary, single agents): highly effective results
O=NN(CCCl)C(=O)NC1CCCCC1 [CCNU]			0.8	
O=P1(NCCCl)OCCCN1CCCl (centres unmarked) [Ifosfamide, ifosfamide]	1.7	1.5	2.6	Ifosf > Cytox + 0.57 ([1]; KU compared per patient, % of 11 patients): (0%)
CNNCc1ccc(C(=O)NC(C)C)cc1 [Procarbazine]			1.3	
Cc1c2oc3c(C)ccc(C(=O)N[C@@H]4C(=O)N[C@H](C(C)C)C(=O)N5CCC[C@H]5C(=O)N(C)CC(=O)N(C)[C@@H](C(C)C)C(=O)O[C@@H]4C)c3nc-2c(C(=O)N[C@@H]2C(=O)N[C@H](C(C)C)C(=O)N3CCC[C@H]3C(=O)N(C)CC(=O)N(C)[C@@H](C(C)C)C(=O)O[C@@H]2C)c(N)c1=O [Dactinomycin] (I: T[dV]P[Sar][NMeV] / II: T[dV]P[Sar][NMeV]; ester I:1-I:C, II:1-II:C; linker I:N-II:N via Actinocin(9to1))			4.0	
C=C1C[C@@H]2CC[C@@]34C[C@H]5O[C@H]6[C@@H](O3)[C@H]3O[C@H](CC[C@@H]3O[C@H]6[C@H]5O4)CC(=O)C[C@@H]3[C@@H](OC)[C@@H](C[C@H](O)CN)O[C@H]3C[C@H]3O[C@@H](CC[C@@H]1O2)C[C@@H](C)C3=C [Eribulin, eribulin]	1.0	1.0		
Cn1nnc2c(C(N)=O)ncn2c1=O [Temozolomide]			1.5	
CCc1c2c(nc3ccc(OC(=O)N4CCC(N5CCCCC5)CC4)cc13)-c1cc3c(c(=O)n1C2)COC(=O)[C@]3(O)CC [Irinotecan]			2.6	
C#Cc1cccc(Nc2ncnc3cc(OCCOC)c(OCCOC)cc23)c1 [Tarceva]			0.7	
N[C@@H](Cc1ccc(N(CCCl)CCCl)cc1)C(=O)O [Melphalan]			5.3	
Nc1ncn([C@@H]2O[C@H](CO)[C@@H](O)[C@H]2O)c(=O)n1 [Vidaza]			4.3	
Bleomycin				Max Resp. (KU) [2]: 1.1 KU
CN(C)/N=N/c1[nH]cnc1C(N)=O [Dacarbazine]			0.6	
